Results reported in ChEMBL document CHEMBL1139857, “Target-based approach to inhibitors of histone arginine methyltransferases” (J Med Chem, 2007).
The source made the active and inactive calls. No cut-off for these calls is given here.

Tests used:
RmtA = RmtA (Emericella nidulans, UniProt Q5VLE3); test: Inhibition of Aspergillus nidulans RmtA by TRF assay
[1] = target: T1, Estrogen receptor (Homo sapiens) (UniProt P03372); test: Inhibition of estradiol-mediated ERalpha activation in MCF-7-2a cells at 150 uM; type: cell-based; parameters: scale not given: the % may be the effect or the level left
T1 sequence (whole entry): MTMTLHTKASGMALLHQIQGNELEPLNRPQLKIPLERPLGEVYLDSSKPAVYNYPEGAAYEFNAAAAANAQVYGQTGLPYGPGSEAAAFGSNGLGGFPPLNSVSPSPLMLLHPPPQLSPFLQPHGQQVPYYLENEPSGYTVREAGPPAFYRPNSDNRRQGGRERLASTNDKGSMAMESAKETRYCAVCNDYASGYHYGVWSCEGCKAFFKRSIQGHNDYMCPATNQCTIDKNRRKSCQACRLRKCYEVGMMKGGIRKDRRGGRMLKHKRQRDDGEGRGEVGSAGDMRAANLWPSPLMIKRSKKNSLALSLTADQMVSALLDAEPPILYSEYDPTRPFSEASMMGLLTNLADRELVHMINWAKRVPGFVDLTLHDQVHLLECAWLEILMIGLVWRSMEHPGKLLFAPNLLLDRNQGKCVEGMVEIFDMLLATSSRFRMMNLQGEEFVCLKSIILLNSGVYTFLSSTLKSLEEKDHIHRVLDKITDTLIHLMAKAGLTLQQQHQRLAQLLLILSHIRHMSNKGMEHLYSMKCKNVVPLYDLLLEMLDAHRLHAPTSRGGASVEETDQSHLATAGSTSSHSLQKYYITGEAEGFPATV

[2] = target: RmtA (Emericella nidulans) (UniProt Q5VLE3); test: Inhibition of Aspergillus nidulans RmtA at 10 uM by TRF assay
[3] = target: RmtA (Emericella nidulans) (UniProt Q5VLE3); test: Inhibition of Aspergillus nidulans RmtA at 2 uM by TRF assay
[4] = target: T2, Androgen receptor (Homo sapiens) (UniProt P10275); test: Inhibition of androgen receptor activation in MCF-7-2a cells by reporter gene assay; type: cell-based
T2 sequence (whole entry): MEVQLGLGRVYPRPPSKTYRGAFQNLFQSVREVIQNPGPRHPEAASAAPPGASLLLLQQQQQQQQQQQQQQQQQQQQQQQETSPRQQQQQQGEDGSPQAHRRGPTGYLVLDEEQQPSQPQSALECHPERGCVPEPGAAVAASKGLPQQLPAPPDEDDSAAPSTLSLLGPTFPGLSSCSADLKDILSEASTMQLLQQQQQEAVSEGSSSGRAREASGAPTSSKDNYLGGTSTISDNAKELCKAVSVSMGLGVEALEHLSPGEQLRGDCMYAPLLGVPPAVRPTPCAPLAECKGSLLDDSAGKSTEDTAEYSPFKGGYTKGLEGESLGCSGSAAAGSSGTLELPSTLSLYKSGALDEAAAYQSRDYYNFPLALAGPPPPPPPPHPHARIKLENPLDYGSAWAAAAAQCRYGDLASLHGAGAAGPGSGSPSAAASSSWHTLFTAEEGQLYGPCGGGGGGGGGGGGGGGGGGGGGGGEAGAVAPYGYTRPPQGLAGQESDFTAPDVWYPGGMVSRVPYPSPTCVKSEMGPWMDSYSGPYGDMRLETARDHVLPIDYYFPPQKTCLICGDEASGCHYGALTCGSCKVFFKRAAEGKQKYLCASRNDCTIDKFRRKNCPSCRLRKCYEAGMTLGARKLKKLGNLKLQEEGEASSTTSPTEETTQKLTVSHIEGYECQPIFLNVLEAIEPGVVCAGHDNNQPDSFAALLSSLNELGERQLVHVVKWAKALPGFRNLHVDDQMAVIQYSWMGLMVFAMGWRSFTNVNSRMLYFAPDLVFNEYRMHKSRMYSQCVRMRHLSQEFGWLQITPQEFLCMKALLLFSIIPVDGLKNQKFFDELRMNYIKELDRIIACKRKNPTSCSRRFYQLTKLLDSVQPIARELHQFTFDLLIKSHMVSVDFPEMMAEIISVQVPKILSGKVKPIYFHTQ

[5] = target: T1, Estrogen receptor (Homo sapiens); test: Inhibition of ERalpha activation in MCF-7-2a cells by reporter gene assay; type: cell-based

Sequence of RmtA (Q5VLE3 whole entry): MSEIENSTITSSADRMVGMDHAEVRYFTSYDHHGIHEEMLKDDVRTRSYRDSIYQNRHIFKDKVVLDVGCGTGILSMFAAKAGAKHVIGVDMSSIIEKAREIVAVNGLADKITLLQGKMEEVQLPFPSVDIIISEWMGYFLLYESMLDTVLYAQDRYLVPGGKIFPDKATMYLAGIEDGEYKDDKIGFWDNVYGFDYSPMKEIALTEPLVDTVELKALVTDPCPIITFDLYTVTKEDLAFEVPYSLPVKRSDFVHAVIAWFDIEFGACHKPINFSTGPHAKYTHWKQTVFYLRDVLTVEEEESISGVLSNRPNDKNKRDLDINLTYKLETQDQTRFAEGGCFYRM
Sequence of RmtA (Emericella nidulans) (Q5VLE3 as listed by the source): as the sequence (Q5VLE3 whole entry) above

Row | SMILES | IC50 (RmtA) [µM] | inhibition [2] [%] | inhibition [3] [%] | also measured
1 | N=C(N)c1ccc(/C=C/c2ccc(C(=N)N)cc2)cc1 [STILBAMIDINE] | 29.9 |  |  | Activity [1]: 75%
2 | CC(C)(CN)SCc1ccccc1 |  | 68.3 |  | Activity [3]: inactive
3 | N=C(N)Nc1nc2cc([N+](=O)[O-])ccc2[nH]1 |  | 75.1 | 15.6 | 
4 | Nc1ccc(S(=O)(=O)c2ccc(NCN3C(=O)NC(=O)C(=O)C3=O)cc2)cc1 [ALLANTODAPSONE] | 8.3 |  |  | 
5 | N=C(N)SCc1cc(Cl)cc(Cl)c1O |  | 83.9 | 18.3 | 
6 | c1nc(NCCCc2c[nH]cn2)c2nc[nH]c2n1 |  | 64.7 | 34.9 | 
7 | Cc1ccc(CNc2ncnc3[nH]cnc23)cc1 |  | 77 | 26.1 | 
8 | O=C(Nc1ccc2c(O)cc(S(=O)(=O)O)cc2c1)Nc1ccc2c(O)cc(S(=O)(=O)O)cc2c1 | 33.8 |  |  | Activity [4]: Active; Activity [5]: Active; Activity [1]: Active
